By IC50 is commonly meant the concentration that gives 50% inhibition. Usually CC50 stands for the concentration that lowers cell viability or growth by half.

Where only a bound is given, the exact number is not on record here.

We go through 20 compounds from ChEMBL document CHEMBL5131408, “Novel O-acylated amidoximes and substituted 1,2,4-oxadiazoles synthesised from (+)-ketopinic acid possessing potent virus-inhibiting activity against phylogenetically distinct influenza A viruses” (Bioorg Med Chem Lett, 2022).

The first data set relates to Influenza A virus. The data set can be described thus: Antiviral activity against Influenza A virus A/Puerto Rico/8/34 (H1N1) infected in MDCK cells assessed as inhibition of viral replication. The format is functional, organism-based.
Settings: not given
As to `CC(C)(C)/C(N)=N/OC(=O)[C@]12CC[C@H](CC1=O)C2(C)C`, the IC50 was determined as 975 µM.
The same measure, in the same setting: then `CC1(C)[C@@H]2CC[C@@]1(C(=O)O/N=C(\N)c1ccc(F)cc1)C(=O)C2`, with 8 µM; and `CC(C)(C)c1noc([C@]23CC[C@H](CC2=O)C3(C)C)n1`, with more than 382 µM.
As to `CC1(C)[C@@H]2CC[C@@]1(c1nc(-c3ccncc3)no1)C(=O)C2`, the IC50 turned out to be 25 µM.
Take `CN(C)C/C(N)=N/OC(=O)[C@]12CC[C@H](CC1=O)C2(C)C`: the IC50 amounted to 52 µM.
Regarding `CC1(C)[C@@H]2CC[C@@]1(C(=O)O/N=C(\N)c1cccnc1)C(=O)C2`, the IC50 was found to be 104 µM.
With `CC1(C)[C@@H]2CC[C@@]1(c1nc(Cc3ccc(Cl)cc3)no1)C(=O)C2`, the IC50 stood at 36 µM.
Consider `CC1(C)[C@@H]2CC[C@@]1(C(=O)O/N=C(\N)c1ccc(C(F)(F)F)cc1)C(=O)C2`, for which the IC50 was determined as 547 µM.
As for `CCc1noc([C@]23CC[C@H](CC2=O)C3(C)C)n1`, the IC50 was 193 µM.
For `CC1(C)[C@@H]2CC[C@@]1(C(=O)O/N=C(\N)Cc1cccc(F)c1)C(=O)C2`, the IC50 was more than 318 µM.
For the compound `CC(C)/C(N)=N/OC(=O)[C@]12CC[C@H](CC1=O)C2(C)C`, the IC50 was determined as 50 µM.
Regarding `C/C(N)=N/OC(=O)[C@]12CC[C@H](CC1=O)C2(C)C`, the IC50 is 175 µM.
Turning to `CC1(C)[C@@H]2CC[C@@]1(c1nc(-c3ccc(Br)cc3)no1)C(=O)C2`, the IC50 came to 6 µM.
On the same count and under the same terms, under `CC1(C)[C@@H]2CC[C@@]1(C(=O)O/N=C(\N)c1ccccc1)C(=O)C2` stands 59 µM.
Regarding `CC1(C)[C@@H]2CC[C@@]1(C(=O)O/N=C(\N)Cc1ccccc1F)C(=O)C2`, the IC50 is 124 µM.
Consider `CN(C)Cc1noc([C@]23CC[C@H](CC2=O)C3(C)C)n1`, for which the IC50 was determined as 913 µM.
On the same count and under the same terms, under `CC1(C)[C@@H]2CC[C@@]1(c1nc(-c3ccccc3F)no1)C(=O)C2` stands 12 µM.
For `CC1(C)[C@@H]2CC[C@@]1(c1nc(Cc3ccc(F)cc3)no1)C(=O)C2`, the IC50 was more than 105 µM.
Same read-out and setting: under `Cc1noc([C@]23CC[C@H](CC2=O)C3(C)C)n1` stands more than 904 µM; under `CC1(C)[C@@H]2CC[C@@]1(c1nc(-c3ccccn3)no1)C(=O)C2`, more than 1000 µM.

Test system in the next data set: not listed separately
The data set can be described thus: Cytotoxicity against MDCK cells infected with Influenza A virus A/Puerto Rico/8/34 (H1N1) assessed as reduction in cell viability. The format is toxicity, cell-based, Canis lupus familiaris. The following applies: dog.
As for `CC(C)(C)/C(N)=N/OC(=O)[C@]12CC[C@H](CC1=O)C2(C)C`, the CC50 was more than 1140 µM.
Consider `CC1(C)[C@@H]2CC[C@@]1(C(=O)O/N=C(\N)c1ccc(F)cc1)C(=O)C2`, for which the CC50 came out at 236 µM.
Turning to `CC(C)(C)c1noc([C@]23CC[C@H](CC2=O)C3(C)C)n1`, the CC50 turned out to be 1140 µM.
Same read-out and setting: then `CC1(C)[C@@H]2CC[C@@]1(c1nc(-c3ccncc3)no1)C(=O)C2`, with 1000 µM; and `CN(C)C/C(N)=N/OC(=O)[C@]12CC[C@H](CC1=O)C2(C)C`, with 433 µM; and `CC1(C)[C@@H]2CC[C@@]1(C(=O)O/N=C(\N)c1cccnc1)C(=O)C2`, with more than 997 µM.
Same read-out and setting: under `CC1(C)[C@@H]2CC[C@@]1(c1nc(Cc3ccc(Cl)cc3)no1)C(=O)C2` stands more than 906 µM; under `CC1(C)[C@@H]2CC[C@@]1(C(=O)O/N=C(\N)c1ccc(C(F)(F)F)cc1)C(=O)C2`, more than 1060 µM; under `CCc1noc([C@]23CC[C@H](CC2=O)C3(C)C)n1`, more than 763 µM.
For `CC1(C)[C@@H]2CC[C@@]1(C(=O)O/N=C(\N)Cc1cccc(F)c1)C(=O)C2`, the CC50 turned out to be 830 µM.
As to `CC(C)/C(N)=N/OC(=O)[C@]12CC[C@H](CC1=O)C2(C)C`, the CC50 worked out at 730 µM.
For `C/C(N)=N/OC(=O)[C@]12CC[C@H](CC1=O)C2(C)C`, the CC50 was determined as 545 µM.
Turning to `CC1(C)[C@@H]2CC[C@@]1(c1nc(-c3ccc(Br)cc3)no1)C(=O)C2`, the CC50 stood at 37 µM.
On to `CC1(C)[C@@H]2CC[C@@]1(C(=O)O/N=C(\N)c1ccccc1)C(=O)C2`, for which the CC50 turned out to be 290 µM.
In the case of `CC1(C)[C@@H]2CC[C@@]1(C(=O)O/N=C(\N)Cc1ccccc1F)C(=O)C2`, the CC50 came to 877 µM.
On the same count and under the same terms, under `CN(C)Cc1noc([C@]23CC[C@H](CC2=O)C3(C)C)n1` stands more than 1190 µM.
Turning to `CC1(C)[C@@H]2CC[C@@]1(c1nc(-c3ccccc3F)no1)C(=O)C2`, the CC50 was determined as 455 µM.
Same read-out and setting: under `CC1(C)[C@@H]2CC[C@@]1(c1nc(Cc3ccc(F)cc3)no1)C(=O)C2` stands 497 µM; under `Cc1noc([C@]23CC[C@H](CC2=O)C3(C)C)n1`, more than 904 µM.
Same read-out and setting: under `CC1(C)[C@@H]2CC[C@@]1(c1nc(-c3ccccn3)no1)C(=O)C2` stands more than 1000 µM.

Test system in a further data set: not listed separately
The data set can be described thus: Selectivity index, ratio of CC50 for cytotoxicity against MDCK cells infected with Influenza A virus A/Puerto Rico/8/34 (H1N1) to IC50 for antiviral activity against Influenza A virus A/Puerto Rico/8/34 (H1N1) infected in MDCK cells. Format: toxicity, cell-based. The following applies: dog; read-out: Ratio CC50/IC50.
Take `CC(C)(C)/C(N)=N/OC(=O)[C@]12CC[C@H](CC1=O)C2(C)C`: the selectivity ratio amounted to 1.
As for `CC1(C)[C@@H]2CC[C@@]1(C(=O)O/N=C(\N)c1ccc(F)cc1)C(=O)C2`, the selectivity ratio was determined as 29.
With `CC(C)(C)c1noc([C@]23CC[C@H](CC2=O)C3(C)C)n1`, the selectivity ratio is less than 3.
The same measure, in the same setting: then `CC1(C)[C@@H]2CC[C@@]1(c1nc(-c3ccncc3)no1)C(=O)C2`, with 40; and `CN(C)C/C(N)=N/OC(=O)[C@]12CC[C@H](CC1=O)C2(C)C`, with 8; and `CC1(C)[C@@H]2CC[C@@]1(C(=O)O/N=C(\N)c1cccnc1)C(=O)C2`, with more than 10.
Regarding `CC1(C)[C@@H]2CC[C@@]1(c1nc(Cc3ccc(Cl)cc3)no1)C(=O)C2`, the selectivity ratio was more than 25.
For `CC1(C)[C@@H]2CC[C@@]1(C(=O)O/N=C(\N)c1ccc(C(F)(F)F)cc1)C(=O)C2`, the selectivity ratio was more than 2.
With `CCc1noc([C@]23CC[C@H](CC2=O)C3(C)C)n1`, the selectivity ratio is more than 4.
For `CC1(C)[C@@H]2CC[C@@]1(C(=O)O/N=C(\N)Cc1cccc(F)c1)C(=O)C2`, the selectivity ratio was 3.
With `CC(C)/C(N)=N/OC(=O)[C@]12CC[C@H](CC1=O)C2(C)C`, the selectivity ratio came out at 14.
For the compound `C/C(N)=N/OC(=O)[C@]12CC[C@H](CC1=O)C2(C)C`, the selectivity ratio was determined as 3.
Turning to `CC1(C)[C@@H]2CC[C@@]1(c1nc(-c3ccc(Br)cc3)no1)C(=O)C2`, the selectivity ratio is 6.
For the compound `CC1(C)[C@@H]2CC[C@@]1(C(=O)O/N=C(\N)c1ccccc1)C(=O)C2`, the selectivity ratio was determined as 5.
For `CC1(C)[C@@H]2CC[C@@]1(C(=O)O/N=C(\N)Cc1ccccc1F)C(=O)C2`, the selectivity ratio was found to be 7.
For the compound `CN(C)Cc1noc([C@]23CC[C@H](CC2=O)C3(C)C)n1`, the selectivity ratio was found to be 1.
Same read-out and setting: under `CC1(C)[C@@H]2CC[C@@]1(c1nc(-c3ccccc3F)no1)C(=O)C2` stands 37; under `CC1(C)[C@@H]2CC[C@@]1(c1nc(Cc3ccc(F)cc3)no1)C(=O)C2`, less than 5.

A further data set concerns Influenza A virus. Put plainly: Antiviral activity against Influenza A virus A/Anhui/1/2013 (H7N9) infected in MDCK cells assessed as inhibition of viral replication. The format is functional, organism-based.
Settings: not given
In the case of `CC1(C)[C@@H]2CC[C@@]1(C(=O)O/N=C(\N)c1ccc(F)cc1)C(=O)C2`, the IC50 is more than 94 µM.
Take `CC1(C)[C@@H]2CC[C@@]1(c1nc(-c3ccncc3)no1)C(=O)C2`: the IC50 was more than 353 µM.
On to `CC1(C)[C@@H]2CC[C@@]1(C(=O)O/N=C(\N)c1cccnc1)C(=O)C2`, for which the IC50 is more than 332 µM.
Turning to `CC1(C)[C@@H]2CC[C@@]1(c1nc(Cc3ccc(Cl)cc3)no1)C(=O)C2`, the IC50 was determined as 8 µM.

Test system in a further data set: not listed separately
Put plainly: Cytotoxicity against MDCK cells infected with Influenza A virus A/Anhui/1/2013 (H7N9) assessed as reduction in cell viability. The format is toxicity, cell-based, Canis lupus familiaris. The following applies: dog.
For the compound `CC1(C)[C@@H]2CC[C@@]1(C(=O)O/N=C(\N)c1ccc(F)cc1)C(=O)C2`, the CC50 came out at 94 µM.
With `CC1(C)[C@@H]2CC[C@@]1(c1nc(-c3ccncc3)no1)C(=O)C2`, the CC50 was 1110 µM.
Take `CC1(C)[C@@H]2CC[C@@]1(C(=O)O/N=C(\N)c1cccnc1)C(=O)C2`: the CC50 is 831 µM.
Regarding `CC1(C)[C@@H]2CC[C@@]1(c1nc(Cc3ccc(Cl)cc3)no1)C(=O)C2`, the CC50 was more than 906 µM.

Test system in another data set: not listed separately
The data set can be described thus: Selectivity index, ratio of CC50 for cytotoxicity against MDCK cells infected with Influenza A virus A/Anhui/1/2013 (H7N9) to IC50 for antiviral activity against Influenza A virus A/Anhui/1/2013 (H7N9) infected in MDCK cells. The following applies: dog; read-out: Ratio CC50/IC50. The format is toxicity, cell-based.
`CC1(C)[C@@H]2CC[C@@]1(C(=O)O/N=C(\N)c1ccc(F)cc1)C(=O)C2`: the selectivity ratio came to 1.
The same measure, in the same setting: then `CC1(C)[C@@H]2CC[C@@]1(c1nc(-c3ccncc3)no1)C(=O)C2`, with 3.
In the case of `CC1(C)[C@@H]2CC[C@@]1(C(=O)O/N=C(\N)c1cccnc1)C(=O)C2`, the selectivity ratio was determined as 3.
Regarding `CC1(C)[C@@H]2CC[C@@]1(c1nc(Cc3ccc(Cl)cc3)no1)C(=O)C2`, the selectivity ratio was found to be 120.
